Read-outs that look alike come from different tables or passages of the source.
How the values were obtained:
22RV1 = test: Cell proliferation assay (CellTiterGlo, 72 h), 22RV1; type: cell-based; settings: read-out: 22Rv1 ATP average IC50
Procedure: All incubations were performed at 37° C. in a humidified carbon dioxide incubator.
(§1) The cells were seeded in a 96-well plate (white wall/transparent bottom) at 5000 cells/well and cultured overnight.
(§2) On day 2, A stock solution of the compound at a concentration of 10 mM was subjected to an 8-fold serial dilution to obtain 8 concentration points. 2 μL of the compound solution at each concentration point was added to 98 μL of fresh medium, and the mixture was mixed homogeneously. Then, 5 μL of the compound solution diluted in the medium at each concentration point was added to 100 μL of overnight medium containing the cells, and 2 replicates were set for each concentration. The mixture was cultured for 72 h.
(§3) After 72 h of compound treatment, the plate was equilibrated to room temperature, 100 μL of CellTiterGlo (Promega) was added. The mixture was mixed homogeneously for 2 min, left to stand at room temperature for 10 min, and then read for luminescence values on a SpectraMax M5 microplate reader to evaluate cell viability. The positive control was 1% Tween-20 and the negative control was 0.1% DMSO. IC50 was generated by 4-parameter non-linear regression fitting in GraphPad Prism.

LNCaP = test: Cell proliferation assay (CellTiterGlo, 72 h), LNCaP; type: cell-based; settings: LNCap cells, 72 h compound treatment, read-out: LNCap ATP average IC50
Procedure: The cell line used was 22RV1 or LNCaP, and the medium was RPMI-1640 containing 10% FBS and antibiotics. All incubations were performed at 37° C. in a humidified carbon dioxide incubator.
On day 1, cells were digested with 0.25% trypsin (containing EDTA) and collected by centrifugation.
as §1, §2, §3

[1] = Homo sapiens, 22Rv1 cells, 72 h compound treatment, CellTiterGlo

SMILES	IC50 (22RV1; Homo sapiens, 22Rv1, 72 h)	IC50 (LNCaP; Homo sapiens)	IC50 (22RV1; [1])	further results
Cc1sc2c(c1C)C(c1ccc(C#CCN)cc1)=N[C@@H](CC(N)=O)c1nnc(C)n1-2 [Compound 9001]	> 500 nM	200 to 500 nM		
Cc1sc2c(c1C)C(c1ccc(C#CC(N)=O)cc1)=N[C@@H](CC(=O)OC(C)(C)C)c1nnc(C)n1-2 [Compound 9002]		< 50 nM	< 50 nM	
Cc1sc2c(c1C)C(c1ccc(-c3cc(=O)[nH]o3)cc1)=N[C@@H](CC(=O)OC(C)(C)C)c1nnc(C)n1-2 [Compound 9003]		50 to 200 nM	> 500 nM	
Cc1sc2c(c1C)C(c1ccc(C#CCN)cc1)=N[C@@H](CC(=O)NO)c1nnc(C)n1-2 [Compound 9010]	> 500 nM	> 500 nM		
Cc1sc2c(c1C)C(c1ccc(C#CCN)cc1)=N[C@@H](CC(=O)Nc1ccc(O)cc1)c1nnc(C)n1-2 [Compound 9012]	200 to 500 nM	50 to 200 nM		
CCNC(=O)C[C@@H]1N=C(c2ccc(C#CCN)cc2)c2c(sc(C)c2C)-n2c(C)nnc21 [Compound 9013]	200 to 500 nM	< 50 nM		
Cc1sc2c(c1C)C(c1ccc(C#CC(=O)NN)cc1)=N[C@@H](CC(=O)OC(C)(C)C)c1nnc(C)n1-2 [Compound 9017]		< 50 nM	200 to 500 nM	
Cc1sc2c(c1C)C(c1ccc(C#CCN)cc1)=N[C@@H](CC(=O)NN)c1nnc(C)n1-2 [Compound 9018]	> 500 nM	> 500 nM		
COC(=O)C#Cc1ccc(C2=N[C@@H](CC(=O)OC(C)(C)C)c3nnc(C)n3-c3sc(C)c(C)c32)cc1 [Compound 9019]		50 to 200 nM	200 to 500 nM	
Cc1sc2c(c1C)C(c1ccc(C#CC(=O)O)cc1)=N[C@@H](CC(=O)OC(C)(C)C)c1nnc(C)n1-2 [Compound 9020]		> 500 nM	> 500 nM	
Cc1sc2c(c1C)C(c1ccc(C#CCN)cc1)=N[C@@H](CC(=O)O)c1nnc(C)n1-2 [Compound 9021]	> 500 nM	50 to 200 nM		
Cc1sc2c(c1C)C(c1ccc(C#CC(=O)N(C)N)cc1)=N[C@@H](CC(=O)OC(C)(C)C)c1nnc(C)n1-2 [Compound 9023]		> 500 nM	> 500 nM	
Cc1sc2c(c1C)C(c1ccc(C#CCN)cc1)=N[C@@H](CC(=O)N(C)O)c1nnc(C)n1-2 [Compound 9025]	200 to 500 nM	50 to 200 nM		
Cc1sc2c(c1C)C(c1ccc(C#CCN)cc1)=N[C@@H](CC(=O)N(C)N)c1nnc(C)n1-2 [Compound 9026]	> 500 nM	> 500 nM		
C#CCNC(=O)C[C@@H]1N=C(c2ccc(C#CCN)cc2)c2c(sc(C)c2C)-n2c(C)nnc21 [Compound 9038]	50 to 200 nM	200 to 500 nM		
Cc1sc2c(c1C)C(c1ccc(C#CCON)cc1)=N[C@@H](CC(=O)OC(C)(C)C)c1nnc(C)n1-2 [Compound 9041]		< 50 nM	50 to 200 nM	
CC(=O)NNCC#Cc1ccc(C2=N[C@@H](CC(=O)OC(C)(C)C)c3nnc(C)n3-c3sc(C)c(C)c32)cc1 [Compound 9046]		50 to 200 nM	< 50 nM	
CC(=O)NN(C)CC#Cc1ccc(C2=N[C@@H](CC(=O)OC(C)(C)C)c3nnc(C)n3-c3sc(C)c(C)c32)cc1 [Compound 9047]		> 500 nM	< 50 nM	
CCNC(=O)C[C@@H]1N=C(c2ccc(C#CCN)cc2)c2cc(OC)ccc2-n2c(C)nnc21 [Compound 9051]	> 500 nM	> 500 nM		
Cc1sc2c(c1C)C(c1ccc(-c3cc(=O)n(C)o3)cc1)=N[C@@H](CC(=O)OC(C)(C)C)c1nnc(C)n1-2 [Compound 9053]		50 to 200 nM	50 to 200 nM	
CONC(=O)C#Cc1ccc(C2=N[C@@H](CC(=O)OC(C)(C)C)c3nnc(C)n3-c3sc(C)c(C)c32)cc1 [Compound 9055]		< 50 nM	< 50 nM	
Cc1sc2c(c1C)C(c1ccc(-c3cc(CN)nn3C)cc1)=N[C@@H](CC(=O)OC(C)(C)C)c1nnc(C)n1-2 [Compound 9058]		200 to 500 nM	> 500 nM	
Cc1sc2c(c1C)C(c1ccc(-c3nc(CN)cs3)cc1)=N[C@@H](CC(=O)OC(C)(C)C)c1nnc(C)n1-2 [Compound 9059]		< 50 nM	50 to 200 nM	
Cc1sc2c(c1C)C(c1ccc(-c3ccoc3CN)cc1)=N[C@@H](CC(=O)OC(C)(C)C)c1nnc(C)n1-2 [Compound 9060]		50 to 200 nM	200 to 500 nM	
Cc1sc2c(c1C)C(c1ccc(N3CC(CN)C3)cc1)=N[C@@H](CC(=O)OC(C)(C)C)c1nnc(C)n1-2 [Compound 9061]		200 to 500 nM	50 to 200 nM	
Cc1sc2c(c1C)C(c1ccc(-c3ccc(CN)n3C)cc1)=N[C@@H](CC(=O)OC(C)(C)C)c1nnc(C)n1-2 [Compound 9062]		50 to 200 nM	50 to 200 nM	

SMILES	IC50 (22RV1; Homo sapiens, 22Rv1, 72 h)	IC50 (LNCaP; Homo sapiens)	IC50 (22RV1; [1])	further results
COc1ccc2c(c1)C(c1ccc(C#CCN)cc1)=N[C@@H](CC(=O)N(C)CCO)c1nnc(C)n1-2 [Compound 9063]	> 500 nM	> 500 nM		
CONCC#Cc1ccc(C2=N[C@@H](CC(=O)OC(C)(C)C)c3nnc(C)n3-c3sc(C)c(C)c32)cc1 [Compound 9064]		< 50 nM	< 50 nM	
Cc1sc2c(c1C)C(c1ccc(N3CC4(CC(N)C4)C3)cc1)=N[C@@H](CC(=O)OC(C)(C)C)c1nnc(C)n1-2 [Compound 9066]		< 50 nM	200 to 500 nM	
Cc1sc2c(c1C)C(c1ccc(-c3ccc(CN)s3)cc1)=N[C@@H](CC(=O)OC(C)(C)C)c1nnc(C)n1-2 [Compound 9067]		50 to 200 nM	50 to 200 nM	
Cc1sc2c(c1C)C(c1ccc(-c3ncc(CN)s3)cc1)=N[C@@H](CC(=O)OC(C)(C)C)c1nnc(C)n1-2 [Compound 9068]		50 to 200 nM	50 to 200 nM	
CCOC(=O)C[C@@H]1N=C(c2ccc(C#CCN)cc2)c2cc(OC)ccc2-n2c(C)nnc21 [Compound 9069]	< 50 nM	< 50 nM		
COc1ccc2c(c1)C(c1ccc(C#CCN)cc1)=N[C@@H](CC(=O)O)c1nnc(C)n1-2 [Compound 9070]	> 500 nM	> 500 nM		
Cc1sc2c(c1C)C(c1ccc(-c3csc(CN)n3)cc1)=NC(CC(=O)OC(C)(C)C)c1nnc(C)n1-2 (centres unmarked) [Compound 9072]		< 50 nM	50 to 200 nM	
Cc1sc2c(c1C)C(c1ccc(-c3cnc(CN)s3)cc1)=NC(CC(=O)OC(C)(C)C)c1nnc(C)n1-2 (centres unmarked) [Compound 9073]		< 50 nM	50 to 200 nM	
Cc1sc2c(c1C)C(c1ccc(-c3nc(CN)cs3)cc1)=N[C@@H](CC(=O)OC(C)(C)C)c1nnc(C)n1-2 [Compound 9074]				IC50 (22RV1; 22Rv1 cells, 72 h compound treatment, CellTiterGlo): 50 to 200 nM; IC50 (LNCaP): < 50 nM
Cc1sc2c(c1C)C(c1ccc(C#CCN)cc1)=N[C@@H](CC(=O)N(C)CCO)c1nnc(C)n1-2 [Compound 9075]	200 to 500 nM	< 50 nM		
Cc1sc2c(c1C)C(c1ccc(C#CCN)cc1)=N[C@@H](CC(=O)NCCO)c1nnc(C)n1-2 [Compound 9076]	> 500 nM	200 to 500 nM		
Cc1sc2c(c1C)C(c1ccc(/C=C/CON)cc1)=N[C@@H](CC(=O)OC(C)(C)C)c1nnc(C)n1-2 [Compound 9083]			< 50 nM	
Cc1sc2c(c1C)C(c1ccc(-c3ccc(CN)cc3)cc1)=NC(CC(=O)OC(C)(C)C)c1nnc(C)n1-2 (centres unmarked) [Compound 9084]		50 to 200 nM	200 to 500 nM	
Cc1sc2c(c1C)C(c1ccc(-c3cccc(CN)c3)cc1)=NC(CC(=O)OC(C)(C)C)c1nnc(C)n1-2 (centres unmarked) [Compound 9085]		50 to 200 nM	> 500 nM	
Cc1sc2c(c1C)C(c1ccc(-c3ccc(N)cc3)cc1)=NC(CC(=O)OC(C)(C)C)c1nnc(C)n1-2 (centres unmarked) [Compound 9086]		200 to 500 nM	200 to 500 nM	
Cc1sc2c(c1C)C(c1ccc(-c3cccc(N)c3)cc1)=NC(CC(=O)OC(C)(C)C)c1nnc(C)n1-2 (centres unmarked) [Compound 9087]		200 to 500 nM	> 500 nM	
Cc1sc2c(c1C)C(c1ccc(N3CC(=NO)C3)cc1)=N[C@@H](CC(=O)OC(C)(C)C)c1nnc(C)n1-2 [Compound 9090]		50 to 200 nM	> 500 nM	
Cc1sc2c(c1C)C(c1ccc(C#CCN)cc1)=N[C@@H](CCOC(=O)C(C)(C)C)c1nnc(C)n1-2 [Compound 9091]	50 to 200 nM	200 to 500 nM		
COc1ccc2c(c1)C(c1ccc(/C=C/CON)cc1)=N[C@@H](CC(=O)OC(C)(C)C)c1nnc(C)n1-2 [Compound 9092]	> 500 nM			
CC(=O)NOC/C=C/c1ccc(C2=N[C@@H](CC(=O)OC(C)(C)C)c3nnc(C)n3-c3sc(C)c(C)c32)cc1 [Compound 9094]		50 to 200 nM	50 to 200 nM	
Cc1noc2c1-c1ccccc1C(c1ccc(/C=C/CNO)cc1)=N[C@H]2CC(=O)OC(C)(C)C [Compound 9095]		50 to 200 nM	50 to 200 nM	
CONC/C=C/c1ccc(C2=N[C@@H](CC(=O)OC(C)(C)C)c3onc(C)c3-c3ccccc32)cc1 [Compound 9097]		> 500 nM	> 500 nM	
Cc1sc2c(c1C)C(c1ccc(N3CC(CO)C3)cc1)=N[C@@H](CC(=O)OC(C)(C)C)c1nnc(C)n1-2 [Compound 9105]			200 to 500 nM	
Cc1sc2c(c1C)C(c1ccc(C#CCN)cc1)=N[C@@H](CC13OCC(C)(CO1)CO3)c1nnc(C)n1-2 [Compound 9113]				IC50 (22RV1): 200 to 500 nM

Reference: patent US20250109141A1, “BRD4 PROTEIN DEGRADER COMPOUND, AND PREPARATION METHOD AND USE THEREOF” (Miracure Biotechnology Limited, priority 2023, published 2025)
